{
  "source": "patent US6482800B1",
  "about": "“Methods to stimulate angiogenesis” (The University of Southern California, priority 1998, dated 2002)",
  "key": {"[1]": {"experiment": "Unspecified test of effectiveness of AII fragments"}, "[2]": {"test_system": "Ischemic Myocardial Tissue", "experiment": "Formation of collateral circulation in ischemic myocardial tissue after coronary artery ligation", "assay_type": "in vivo, Rabbits", "conditions": "rabbit, peptide 1 mg/ml; for Number of blood vessels present in the infarct site, Mean ± SEM: left circumflex and left anterior descending arteries ligated, 0.05 ml in Hydron vehicle injected in cardiac muscle, necropsy from day 7, microscopic examination; for Vascularization of the infarct site: 0.05 ml injected distal to coronary occlusion, versus vehicle", "procedure": "Rabbits underwent a surgical procedure under intramuscular anesthesia (Ketamine and Rompum) after shaving with animal clippers and preparation with betadine and isopropyl alcohol. A midline sternotomy was performed. After exposure of the pericardial sac, a three centimeter incision was made into the pericardium. After visualization of the epicardial surface, two coronary arteries, the left circumflex and the left anterior descending arteries, were exposed and ligated by 4-0 Vicryl suture. Vehicle (10% Hydron, 60% ethanol and 1% polyethylene glycol), with or without peptide (1 mg/ml, 0.05 ml) was injected in the cardiac muscle distal to the site of coronary occlusion. The sternum was then closed with 2-0 Silk. The muscle and skin were then closed with 3-0 Dexon II suture. Starting at 7 days after surgery, the animals were euthanized and necropsies performed. The number of blood vessels present in the infarct site was assessed grossly and by microscopic evaluation."}, "[3]": {"test_system": "Living skin equivalent (LSE) graft tissue", "experiment": "Engraftment of living skin equivalent (LSE) on full thickness skin excision", "assay_type": "in vivo, Swiss nude mice", "conditions": "LSE soaked 15 minutes in 1.0 mg/ml peptide; day 7; compared to untreated LSE", "procedure": "Male Swiss nude mice (22-24 g) were anesthetized with an intramuscular injection of Ketaset/Rompun and a 1 cm×1 cm full thickness skin excision was made on their dorsal surface. Living skin equivalent (LSE) was placed in the defect and trimmed with microscissors so that no gap was observed between the edges of the mouse skin and the LSE. The mice were divided into 6 groups based upon the peptide tested: (0 [LRS-Dextrose], or 1.0 mg/ml AII or AII analogues, AII (1-7) [SEQ ID NO:4]; Ala4AIII [SEQ ID NO:18]; Pro3AII [SEQ ID NO:31]; and Ile8AII [SEQ ID NO: 42]; see Table 3) and the LSE was soaked for 15 minutes in lactated Ringers solution with 5% dextrose with or without peptides prior to placement. After the graft was placed, the dorsal surface of the mouse was covered by petrolatum-embedded gauze followed by two adhesive bandages. After recovery from anesthesia, the mice were returned to their individual cages and observed daily until euthanasia. The mice received intramuscular analgesia for the first three days after surgery. No mouse lost its bandages prior to necropsy or bandage removal on day 7. The mice were necropsied on day 7. At necropsy, the degree of graft take and the appearance of the grafted tissue was noted prior to placement of the biopsy in 10% buffered formalin in preparation for paraffin embedding and section for hematoxylin and eosin staining."}, "[4]": {"test_system": "chick chorioallantoic membrane", "conditions": "chick chorioallantoic membrane model; cited from earlier work"}, "burn areas": {"test_system": "burn areas", "experiment": "Partial thickness thermal injury model", "assay_type": "in vivo, Hartley guinea pigs", "conditions": "1 mg/ml peptide in 10% low-viscosity CMC, topical on burn; day 7"}, "rat kidneys": {"test_system": "rat kidneys", "conditions": "cited from earlier work"}, "rabbit corneal eye": {"test_system": "rabbit corneal eye", "conditions": "rabbit corneal eye model; cited from earlier work"}, "AT2 receptor": {"molecular_target": "T1, AT2 receptor (Homo sapiens, UniProt P50052)", "T1 sequence (P50052 1-363)": "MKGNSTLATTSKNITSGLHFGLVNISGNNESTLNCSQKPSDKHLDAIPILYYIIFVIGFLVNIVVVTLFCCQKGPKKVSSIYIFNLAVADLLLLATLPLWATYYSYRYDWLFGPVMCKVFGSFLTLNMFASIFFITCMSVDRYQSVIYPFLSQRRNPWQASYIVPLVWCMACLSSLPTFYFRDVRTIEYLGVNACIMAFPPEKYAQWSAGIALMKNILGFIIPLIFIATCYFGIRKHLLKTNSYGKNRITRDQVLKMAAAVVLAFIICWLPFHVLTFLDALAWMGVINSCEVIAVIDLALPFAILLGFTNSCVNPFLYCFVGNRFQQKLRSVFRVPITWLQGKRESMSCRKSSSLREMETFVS", "conditions": "cited from earlier work"}},
  "note": "“Also recorded” adds a separate entry of the source. Square brackets hold non-standard residues; d marks the D form. Ends that are not written are not given here. Nle = CCCC[C@H](N)C(=O)O",
  "data": [
    {"substance": "Tyr-Ile-His-Pro-Phe (YIHPF) [AII(4-8)]", "values": [
      {"measurement": "Effectiveness (test not specified)", "setting": "[1]", "value": "not to be effective; also recorded: ineffective"}
    ]},
    {"substance": "DRKYIHP [Analogue 5GD]", "values": [
      {"measurement": "Number of blood vessels present in the infarct site, Mean ± SEM", "setting": "[2]", "value": "24.55 ± 2.34"},
      {"measurement": "Vascularization of the infarct site", "setting": "[2]", "value": "increase vascularization"}
    ]},
    {"substance": "DRPYIHP [Analogue 2GD]", "values": [
      {"measurement": "Number of blood vessels present in the infarct site, Mean ± SEM", "setting": "[2]", "value": "31.2 ± 5.62"},
      {"measurement": "Vascularization of the infarct site", "setting": "[2]", "value": "increase vascularization"}
    ]},
    {"substance": "Asp-Arg-Val-Tyr-Ile-His-Pro-Phe [AII]", "values": [
      {"measurement": "Number of blood vessels present in the infarct site, Mean ± SEM", "setting": "[2]", "value": "29.8 ± 12.3"},
      {"measurement": "Vascularization of the infarct site", "setting": "[2]", "value": "increase vascularization"},
      {"measurement": "Angiogenesis (vascular channel formation) in graft tissue", "setting": "[3]", "value": "increased"},
      {"measurement": "Endothelial cell production in graft tissue", "setting": "[3]", "value": "increased"},
      {"measurement": "Angiogenic activity", "setting": "[4]", "value": "angiogenic"},
      {"measurement": "Blood flow response (angiogenesis) after thermal injury, compared to control", "setting": "burn areas", "value": "increased blood flow response compared to control"},
      {"measurement": "Activation of collateral circulation via preformed blood vessels", "setting": "rat kidneys", "value": "activate collateral circulation"},
      {"measurement": "Angiogenic activity", "setting": "rabbit corneal eye", "value": "angiogenic"}
    ]},
    {"substance": "Asp-Arg-Val-Tyr-Ile-His-Pro-Phe (DRVYIHPF) [AII]", "values": [
      {"measurement": "Affinity for AT2 relative to AT1", "setting": "AT2 receptor", "value": 100, "unit": "times"}
    ]},
    {"substance": "Asp-Arg-Val-Tyr-Ile-His-Pro (DRVYIHP) [AII(1-7)]", "values": [
      {"measurement": "Number of blood vessels present in the infarct site, Mean ± SEM", "setting": "[2]", "value": "80.6 ± 4.5"},
      {"measurement": "Vascularization of the infarct site", "setting": "[2]", "value": "increase vascularization"}
    ]},
    {"substance": "DRVAIHP [Analogue 1GD]", "values": [
      {"measurement": "Number of blood vessels present in the infarct site, Mean ± SEM", "setting": "[2]", "value": "23.4 ± 8.6"},
      {"measurement": "Vascularization of the infarct site", "setting": "[2]", "value": "increase vascularization"}
    ]},
    {"substance": "DR(nor)YIHP (DR[Nle]YIHP) [Analogue 9GD]", "values": [
      {"measurement": "Number of blood vessels present in the infarct site, Mean ± SEM", "setting": "[2]", "value": "21.2 ± 2.8"},
      {"measurement": "Vascularization of the infarct site", "setting": "[2]", "value": "increase vascularization"}
    ]},
    {"substance": "His-Pro-Phe (HPF) [AII(6-8)]", "values": [
      {"measurement": "Effectiveness (test not specified)", "setting": "[1]", "value": "not to be effective"}
    ]}
  ]
}
